Experimental findings from patent US11987588B2, “Modulators of the beta-3 adrenergic receptor useful for the treatment or prevention of heart failure and disorders related thereto” (Arena Pharmaceuticals, Inc., priority 2017, dated 2024) are described below.

By IC50 is commonly meant the concentration that inhibits the measured activity by half.

The target of the assay is Beta-3 Adrenergic Receptor (Homo sapiens (Human), UniProt P13945). Description: Homogeneous Time-Resolved Fluorescence (HTRF) cAMP antagonist assay, IC50 determination. It counts as cell-based. Conditions: CHO-K1 cells stably expressing recombinant receptor, isoproterenol at EC90. The procedure, abridged: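 In this functional readout, recombinant CHO-K1 cells received compound, then isoproterenol at its EC90. After 1 h at room temperature, cAMP levels were determined by HTRF using an on-plate standard curve, and IC50 values were fitted.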
Beta-3 Adrenergic Receptor, sequence (P13945 whole entry, species assumed): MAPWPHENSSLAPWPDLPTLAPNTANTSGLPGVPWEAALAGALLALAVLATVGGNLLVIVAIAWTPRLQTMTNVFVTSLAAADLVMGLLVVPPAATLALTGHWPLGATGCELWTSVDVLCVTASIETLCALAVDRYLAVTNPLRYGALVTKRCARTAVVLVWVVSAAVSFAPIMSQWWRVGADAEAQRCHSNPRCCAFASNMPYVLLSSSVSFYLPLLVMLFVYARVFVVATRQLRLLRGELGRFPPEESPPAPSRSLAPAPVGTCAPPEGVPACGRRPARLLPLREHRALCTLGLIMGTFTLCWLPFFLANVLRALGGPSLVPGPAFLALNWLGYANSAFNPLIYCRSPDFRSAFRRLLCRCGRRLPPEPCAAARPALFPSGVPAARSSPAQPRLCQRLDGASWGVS
(In general: TR-FRET usually uses a lanthanide donor and a delayed reading to cut background.)
Consider `CNS(=O)(=O)c1cccc(OC[C@@H](O)CNC2COC3(CCN(S(=O)(=O)c4cccc(-c5ccc(N)nc5)c4)CC3)C2)c1` (stereo partly drawn) [Compound 103, 3-((2S)-3-(8-(3-(6-aminopyridin-3-yl)phenylsulfonyl)-1-oxa-8-azaspiro[4.5]decan-3-ylamino)-2-hydroxypropoxy)-N-methylbenzenesulfonamide], for which the 50% inhibitory concentration (IC50) stood at 10.5 nM.
With `CNS(=O)(=O)c1cccc(OC[C@@H](O)CNC2COC3(CCN(S(=O)(=O)c4cccc(-c5cncnc5)c4)CC3)C2)c1` (stereo partly drawn) [Compound 104, 3-((2S)-2-hydroxy-3-(8-(3-(pyrimidin-5-yl)phenylsulfonyl)-1-oxa-8-azaspiro[4.5]decan-3-ylamino)propoxy)-N-methylbenzenesulfonamide] the figure was 17.3 nM; with `CNS(=O)(=O)c1cccc(OC[C@@H](O)CNC2COC3(CCN(S(=O)(=O)c4cccc(-c5cccc(CN(C)C)c5)c4)CC3)C2)c1` (stereo partly drawn) [Compound 105, 3-((2S)-3-(8-(3′-((dimethylamino)methyl)biphenyl-3-ylsulfonyl)-1-oxa-8-azaspiro[4.5]decan-3-ylamino)-2-hydroxypropoxy)-N-methylbenzenesulfonamide], 31.2 nM.
For `CNS(=O)(=O)c1cccc(OC[C@@H](O)CNC2COC3(CCN(S(=O)(=O)c4cccc(-c5ccncc5)c4)CC3)C2)c1` (stereo partly drawn) [Compound 106, 3-((2S)-2-hydroxy-3-(8-(3-(pyridin-4-yl)phenylsulfonyl)-1-oxa-8-azaspiro[4.5]decan-3-ylamino)propoxy)-N-methylbenzenesulfonamide], the IC50 is 13.3 nM.
`CNS(=O)(=O)c1cccc(OC[C@@H](O)CNC2COC3(CCN(S(=O)(=O)c4cccc(-c5ccnc(C)c5)c4)CC3)C2)c1` (stereo partly drawn) [Compound 107, 3-((2S)-2-hydroxy-3-(8-(3-(2-methylpyridin-4-yl)phenylsulfonyl)-1-oxa-8-azaspiro[4.5]decan-3-ylamino)propoxy)-N-methylbenzenesulfonamide]: the half-inhibitory concentration (IC50) came to 10.9 nM.
For `CNS(=O)(=O)c1cccc(OC[C@@H](O)CNC2COC3(CCN(S(=O)(=O)c4cccc(-c5cnc(OC)nc5)c4)CC3)C2)c1` (stereo partly drawn) [Compound 108, 3-((2S)-2-hydroxy-3-(8-(3-(2-methoxypyrimidin-5-yl)phenylsulfonyl)-1-oxa-8-azaspiro[4.5]decan-3-ylamino)propoxy)-N-methylbenzenesulfonamide] the value was 13.4 nM; for `CNS(=O)(=O)c1cccc(OC[C@@H](O)CNC2COC3(CCN(S(=O)(=O)c4cccc(-c5cscc5C)c4)CC3)C2)c1` (stereo partly drawn) [Compound 109, 3-((2S)-2-hydroxy-3-(8-(3-(4-methylthiophen-3-yl)phenylsulfonyl)-1-oxa-8-azaspiro[4.5]decan-3-ylamino)propoxy)-N-methylbenzenesulfonamide], 13.7 nM.
With `CNS(=O)(=O)c1cccc(OC[C@@H](O)CNC2COC3(CCN(S(=O)(=O)c4cccc(-c5cncc(C)c5)c4)CC3)C2)c1` (stereo partly drawn) [Compound 110, 3-((2S)-2-hydroxy-3-(8-(3-(5-methylpyridin-3-yl)phenylsulfonyl)-1-oxa-8-azaspiro[4.5]decan-3-ylamino)propoxy)-N-methylbenzenesulfonamide] the figure was 19 nM; with `CNS(=O)(=O)c1cccc(OC[C@@H](O)CNC2COC3(CCN(S(=O)(=O)c4cccc(-c5ccc(C)nc5)c4)CC3)C2)c1` (stereo partly drawn) [Compound 111, 3-((2S)-2-hydroxy-3-(8-(3-(6-methylpyridin-3-yl)phenylsulfonyl)-1-oxa-8-azaspiro[4.5]decan-3-ylamino)propoxy)-N-methylbenzenesulfonamide], 26.3 nM; with `CNS(=O)(=O)c1cccc(OC[C@@H](O)CNC2COC3(CCN(S(=O)(=O)c4cccc(-c5cccc(C(=O)O)c5)c4)CC3)C2)c1` (stereo partly drawn) [Compound 112, 3′-(3-((S)-2-hydroxy-3-(3-(N-methylsulfamoyl)phenoxy)propylamino)-1-oxa-8-azaspiro[4.5]decan-8-ylsulfonyl)biphenyl-3-carboxylic acid], 239 nM.
Consider `CNS(=O)(=O)c1cccc(OC[C@@H](O)CNC2COC3(CCN(S(=O)(=O)c4cccc(-c5cn(C)c(=O)n(C)c5=O)c4)CC3)C2)c1` (stereo partly drawn) [Compound 113, 3-((2S)-3-(8-(3-(1,3-dimethyl-2,4-dioxo-1,2,3,4-tetrahydropyrimidin-5-yl)phenylsulfonyl)-1-oxa-8-azaspiro[4.5]decan-3-ylamino)-2-hydroxypropoxy)-N-methylbenzenesulfonamide], for which the half-inhibitory concentration (IC50) came out at 213 nM.
For `CNS(=O)(=O)c1cccc(OC[C@@H](O)CNC2COC3(CCN(S(=O)(=O)c4cccc(-c5ccc(OCC#N)cc5)c4)CC3)C2)c1` (stereo partly drawn) [Compound 114, 3-((2S)-3-(8-(4′-(cyanomethoxy)biphenyl-3-ylsulfonyl)-1-oxa-8-azaspiro[4.5]decan-3-ylamino)-2-hydroxypropoxy)-N-methylbenzenesulfonamide] the value was 10.3 nM; for `CNS(=O)(=O)c1cccc(OC[C@@H](O)CNC2COC3(CCN(S(=O)(=O)c4cccc(-c5cccc(S(=O)(=O)N(C)C)c5)c4)CC3)C2)c1` (stereo partly drawn) [Compound 115, 3′-(3-((S)-2-hydroxy-3-(3-(N-methylsulfamoyl)phenoxy)propylamino)-1-oxa-8-azaspiro[4.5]decan-8-ylsulfonyl)-N,N-dimethylbiphenyl-3-sulfonamide], 33.5 nM; for `CNS(=O)(=O)c1cccc(OC[C@@H](O)CNC2COC3(CCN(S(=O)(=O)c4cccc(-c5sccc5C)c4)CC3)C2)c1` (stereo partly drawn) [Compound 116, 3-((2S)-2-hydroxy-3-(8-(3-(3-methylthiophen-2-yl)phenylsulfonyl)-1-oxa-8-azaspiro[4.5]decan-3-ylamino)propoxy)-N-methylbenzenesulfonamide], 23.5 nM.
For the compound `CNS(=O)(=O)c1cccc(OC[C@@H](O)CNC2COC3(CCN(S(=O)(=O)c4cccc(-c5ccc(CC#N)cc5)c4)CC3)C2)c1` (stereo partly drawn) [Compound 117, 3-((2S)-3-(8-(4′-(cyanomethyl)biphenyl-3-ylsulfonyl)-1-oxa-8-azaspiro[4.5]decan-3-ylamino)-2-hydroxypropoxy)-N-methylbenzenesulfonamide], the IC50 was determined as 14.5 nM.
Take `CNS(=O)(=O)c1cccc(OC[C@@H](O)CNC2COC3(CCN(S(=O)(=O)c4cccc(-c5cccc(CO)c5)c4)CC3)C2)c1` (stereo partly drawn) [Compound 118, 3-((2S)-2-hydroxy-3-(8-(3′-(hydroxymethyl)biphenyl-3-ylsulfonyl)-1-oxa-8-azaspiro[4.5]decan-3-ylamino)propoxy)-N-methylbenzenesulfonamide]: the 50% inhibitory concentration (IC50) was 24.1 nM.
With `CNS(=O)(=O)c1cccc(OC[C@@H](O)CNC2COC3(CCN(S(=O)(=O)c4cn(C)c(C)n4)CC3)C2)c1` (stereo partly drawn) [Compound 119, 3-((2S)-3-(8-(1,2-dimethyl-1H-imidazol-4-ylsulfonyl)-1-oxa-8-azaspiro[4.5]decan-3-ylamino)-2-hydroxypropoxy)-N-methylbenzenesulfonamide] the figure was 203 nM.
For the compound `CCC(C)(C)c1ccc(S(=O)(=O)N2CCC3(CC2)CC(NC[C@H](O)COc2cccc(S(=O)(=O)NC)c2)CO3)cc1` (stereo partly drawn) [Compound 120, 3-((2S)-2-hydroxy-3-(8-(4-tert-pentylphenylsulfonyl)-1-oxa-8-azaspiro[4.5]decan-3-ylamino)propoxy)-N-methylbenzenesulfonamide], the half-inhibitory concentration (IC50) worked out at 36.4 nM.
For `CNS(=O)(=O)c1cccc(OC[C@@H](O)CNC2COC3(CCN(S(=O)(=O)c4ccc(-c5ccc(C(F)(F)F)cc5)cc4)CC3)C2)c1` (stereo partly drawn) [Compound 121, 3-((2S)-2-hydroxy-3-(8-(4′-(trifluoromethyl)biphenyl-4-ylsulfonyl)-1-oxa-8-azaspiro[4.5]decan-3-ylamino)propoxy)-N-methylbenzenesulfonamide] the value was 67 nM; for `CNS(=O)(=O)c1cccc(OC[C@@H](O)CNC2COC3(CCN(S(=O)(=O)c4ccc(-c5ccc(F)cc5)cc4)CC3)C2)c1` (stereo partly drawn) [Compound 122, 3-((2S)-3-(8-(4′-fluorobiphenyl-4-ylsulfonyl)-1-oxa-8-azaspiro[4.5]decan-3-ylamino)-2-hydroxypropoxy)-N-methylbenzenesulfonamide], 34.1 nM.
As to `CNS(=O)(=O)c1cccc(OC[C@@H](O)CNC2COC3(CCN(S(=O)(=O)c4ccc(-c5ccccc5)cc4)CC3)C2)c1` (stereo partly drawn) [Compound 123, 3-((2S)-3-(8-(biphenyl-4-ylsulfonyl)-1-oxa-8-azaspiro[4.5]decan-3-ylamino)-2-hydroxypropoxy)-N-methylbenzenesulfonamide], the 50% inhibitory concentration (IC50) amounted to 40.5 nM.
Turning to `CNS(=O)(=O)c1cccc(OC[C@@H](O)CNC2COC3(CCN(S(=O)(=O)c4cccc(Oc5ccccc5)c4)CC3)C2)c1` (stereo partly drawn) [Compound 124, 3-((2S)-2-hydroxy-3-(8-(3-phenoxyphenylsulfonyl)-1-oxa-8-azaspiro[4.5]decan-3-ylamino)propoxy)-N-methylbenzenesulfonamide], the 50% inhibitory concentration (IC50) was 36.2 nM.
With `CNS(=O)(=O)c1cccc(OC[C@@H](O)CNC2COC3(CCN(S(=O)(=O)C4CCCCC4)CC3)C2)c1` (stereo partly drawn) [Compound 125, 3-((2S)-3-(8-(cyclohexylsulfonyl)-1-oxa-8-azaspiro[4.5]decan-3-ylamino)-2-hydroxypropoxy)-N-methylbenzenesulfonamide] the figure was 78.1 nM; with `CNS(=O)(=O)c1cccc(OC[C@@H](O)CNC2COC3(CCN(S(=O)(=O)c4ccc5c(c4)NC(=O)CO5)CC3)C2)c1` (stereo partly drawn) [Compound 126, 3-((2S)-2-hydroxy-3-(8-(3-oxo-3,4-dihydro-2H-benzo[b][1,4]oxazin-6-ylsulfonyl)-1-oxa-8-azaspiro[4.5]decan-3-ylamino)propoxy)-N-methylbenzenesulfonamide], 13 nM; with `CNS(=O)(=O)c1cccc(OC[C@@H](O)CNC2COC3(CCN(S(=O)(=O)c4ccc5c(c4)CCC(C)(C)O5)CC3)C2)c1` (stereo partly drawn) [Compound 127, 3-((2S)-3-(8-(2,2-dimethylchroman-6-ylsulfonyl)-1-oxa-8-azaspiro[4.5]decan-3-ylamino)-2-hydroxypropoxy)-N-methylbenzenesulfonamide], 14.9 nM.
